How the values were obtained:
Test in all cases: Kinase selectivity, DiscoverX scanMAX Kinase assay panel (% control)
Format in all cases: binding
[1] = target: T1, kinases of the scanMAX Kinase assay panel (Homo sapiens, UniProt P00519, E255K); details: ABL1(E255K)-phosphorylated; 1 uM
T1 construct: purchased DiscoverX Co. (contract measurement) scanMAX Kinase assay panel
Method in brief: (§1)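 A 1 uM DMSO solution of compound was applied across the panel kinases, and results were expressed as % control relative to DMSO (100%) and a positive control (0%).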

[2] = target: T2, kinases of the scanMAX Kinase assay panel (Homo sapiens, UniProt P29376); details: LTK; 1 uM
T2 construct: purchased DiscoverX Co. (contract measurement) scanMAX Kinase assay panel
T2 sequence (P29376 17-864): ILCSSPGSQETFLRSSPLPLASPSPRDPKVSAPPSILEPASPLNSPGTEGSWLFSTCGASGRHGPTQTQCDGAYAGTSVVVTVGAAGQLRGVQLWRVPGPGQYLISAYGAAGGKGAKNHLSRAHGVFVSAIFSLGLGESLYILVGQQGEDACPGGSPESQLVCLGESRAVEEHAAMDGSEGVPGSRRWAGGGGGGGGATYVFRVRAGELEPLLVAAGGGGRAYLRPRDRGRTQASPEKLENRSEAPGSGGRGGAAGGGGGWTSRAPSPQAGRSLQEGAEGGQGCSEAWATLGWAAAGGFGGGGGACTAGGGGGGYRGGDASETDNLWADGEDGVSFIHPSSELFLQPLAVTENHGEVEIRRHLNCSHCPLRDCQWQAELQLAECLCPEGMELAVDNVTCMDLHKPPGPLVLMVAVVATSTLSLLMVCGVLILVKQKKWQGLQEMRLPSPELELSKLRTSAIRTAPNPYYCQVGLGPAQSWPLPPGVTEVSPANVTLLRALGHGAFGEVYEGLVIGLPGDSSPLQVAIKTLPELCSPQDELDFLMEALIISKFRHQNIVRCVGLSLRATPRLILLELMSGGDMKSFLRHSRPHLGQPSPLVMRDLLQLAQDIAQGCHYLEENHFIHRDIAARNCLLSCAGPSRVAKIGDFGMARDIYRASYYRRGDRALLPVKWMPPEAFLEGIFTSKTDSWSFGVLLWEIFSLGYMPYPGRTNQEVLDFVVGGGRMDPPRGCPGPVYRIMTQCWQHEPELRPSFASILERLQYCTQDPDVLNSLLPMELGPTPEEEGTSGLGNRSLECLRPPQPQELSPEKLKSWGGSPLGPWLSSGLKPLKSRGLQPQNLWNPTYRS
Method in brief: as §1

[3] = target: T3, kinases of the scanMAX Kinase assay panel (Homo sapiens, UniProt P42679); details: CTK; 1 uM
T3 construct: purchased DiscoverX Co. (contract measurement) scanMAX Kinase assay panel
T3 sequence (P42679 1-507): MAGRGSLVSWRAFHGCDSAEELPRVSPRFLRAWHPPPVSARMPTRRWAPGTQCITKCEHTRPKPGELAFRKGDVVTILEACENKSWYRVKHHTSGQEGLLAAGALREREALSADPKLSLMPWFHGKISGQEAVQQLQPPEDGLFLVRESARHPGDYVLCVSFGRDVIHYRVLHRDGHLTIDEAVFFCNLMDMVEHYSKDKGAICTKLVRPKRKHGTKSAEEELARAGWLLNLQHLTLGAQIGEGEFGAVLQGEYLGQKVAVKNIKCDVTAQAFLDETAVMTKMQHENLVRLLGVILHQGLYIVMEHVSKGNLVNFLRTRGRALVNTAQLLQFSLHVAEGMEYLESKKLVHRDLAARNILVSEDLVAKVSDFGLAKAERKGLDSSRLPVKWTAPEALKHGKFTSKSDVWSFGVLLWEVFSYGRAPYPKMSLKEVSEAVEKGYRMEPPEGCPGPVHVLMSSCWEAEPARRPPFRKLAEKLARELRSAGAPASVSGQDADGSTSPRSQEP
Method in brief: as §1

[4] = target: T4, kinases of the scanMAX Kinase assay panel (Homo sapiens, UniProt P42684); details: ABL2; 1 uM
T4 construct: purchased DiscoverX Co. (contract measurement) scanMAX Kinase assay panel
T4 sequence (P42684 whole entry): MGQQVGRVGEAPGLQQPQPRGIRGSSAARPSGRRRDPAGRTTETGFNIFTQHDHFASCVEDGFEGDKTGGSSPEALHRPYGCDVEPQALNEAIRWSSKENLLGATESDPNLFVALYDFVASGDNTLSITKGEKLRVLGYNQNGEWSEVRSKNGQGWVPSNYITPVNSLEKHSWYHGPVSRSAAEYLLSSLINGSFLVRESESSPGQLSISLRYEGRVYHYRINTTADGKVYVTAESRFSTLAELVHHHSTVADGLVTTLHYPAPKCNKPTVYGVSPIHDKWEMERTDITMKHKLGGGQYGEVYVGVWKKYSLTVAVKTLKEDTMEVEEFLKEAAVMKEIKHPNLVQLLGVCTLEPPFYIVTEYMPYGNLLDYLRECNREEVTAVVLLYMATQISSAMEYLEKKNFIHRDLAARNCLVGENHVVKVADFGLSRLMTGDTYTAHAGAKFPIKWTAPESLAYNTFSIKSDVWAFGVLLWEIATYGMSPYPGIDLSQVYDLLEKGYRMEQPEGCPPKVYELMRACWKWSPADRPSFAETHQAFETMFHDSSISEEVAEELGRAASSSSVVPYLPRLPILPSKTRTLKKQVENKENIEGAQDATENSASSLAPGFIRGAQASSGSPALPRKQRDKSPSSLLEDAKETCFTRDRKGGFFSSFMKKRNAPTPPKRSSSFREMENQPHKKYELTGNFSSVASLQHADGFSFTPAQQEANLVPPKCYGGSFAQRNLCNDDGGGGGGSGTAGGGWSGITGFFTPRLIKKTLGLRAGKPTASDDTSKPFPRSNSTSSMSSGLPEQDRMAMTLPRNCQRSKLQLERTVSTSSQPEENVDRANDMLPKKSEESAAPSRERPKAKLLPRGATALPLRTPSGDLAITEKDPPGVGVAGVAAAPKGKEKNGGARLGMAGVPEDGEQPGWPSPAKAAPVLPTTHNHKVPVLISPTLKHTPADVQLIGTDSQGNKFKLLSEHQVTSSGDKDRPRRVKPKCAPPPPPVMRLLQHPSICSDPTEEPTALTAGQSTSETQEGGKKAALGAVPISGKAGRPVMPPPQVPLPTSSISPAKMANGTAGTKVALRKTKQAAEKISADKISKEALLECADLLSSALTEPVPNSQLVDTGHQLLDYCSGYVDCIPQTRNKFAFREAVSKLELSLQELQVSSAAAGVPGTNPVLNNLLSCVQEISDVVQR
Method in brief: as §1

[5] = target: T5, kinases of the scanMAX Kinase assay panel (Homo sapiens, UniProt Q13131); details: AMPK-alpha1; 1 uM
T5 construct: purchased DiscoverX Co. (contract measurement) scanMAX Kinase assay panel
T5 sequence (Q13131 whole entry): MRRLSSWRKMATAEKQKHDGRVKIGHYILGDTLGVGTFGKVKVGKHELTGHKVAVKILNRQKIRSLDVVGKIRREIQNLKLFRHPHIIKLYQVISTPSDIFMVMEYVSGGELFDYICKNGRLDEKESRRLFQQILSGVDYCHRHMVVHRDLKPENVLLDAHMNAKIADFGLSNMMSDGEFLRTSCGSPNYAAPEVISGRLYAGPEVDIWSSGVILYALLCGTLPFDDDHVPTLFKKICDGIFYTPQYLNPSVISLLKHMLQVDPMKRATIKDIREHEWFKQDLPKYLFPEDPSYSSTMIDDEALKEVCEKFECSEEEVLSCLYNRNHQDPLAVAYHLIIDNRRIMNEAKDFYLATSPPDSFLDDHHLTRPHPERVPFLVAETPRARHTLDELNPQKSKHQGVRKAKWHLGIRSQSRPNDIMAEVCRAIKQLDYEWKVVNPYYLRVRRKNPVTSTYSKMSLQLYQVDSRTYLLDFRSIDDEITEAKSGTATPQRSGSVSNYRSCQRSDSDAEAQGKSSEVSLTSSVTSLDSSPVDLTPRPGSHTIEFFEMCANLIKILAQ
Method in brief: as §1

[6] = target: T6, kinases of the scanMAX Kinase assay panel (Homo sapiens, UniProt Q6XUX3); details: kinase RIPK5; 1 uM in DMSO
T6 construct: purchased DiscoverX Co. (contract measurement) scanMAX Kinase assay panel
T6 sequence (Q6XUX3 1-929): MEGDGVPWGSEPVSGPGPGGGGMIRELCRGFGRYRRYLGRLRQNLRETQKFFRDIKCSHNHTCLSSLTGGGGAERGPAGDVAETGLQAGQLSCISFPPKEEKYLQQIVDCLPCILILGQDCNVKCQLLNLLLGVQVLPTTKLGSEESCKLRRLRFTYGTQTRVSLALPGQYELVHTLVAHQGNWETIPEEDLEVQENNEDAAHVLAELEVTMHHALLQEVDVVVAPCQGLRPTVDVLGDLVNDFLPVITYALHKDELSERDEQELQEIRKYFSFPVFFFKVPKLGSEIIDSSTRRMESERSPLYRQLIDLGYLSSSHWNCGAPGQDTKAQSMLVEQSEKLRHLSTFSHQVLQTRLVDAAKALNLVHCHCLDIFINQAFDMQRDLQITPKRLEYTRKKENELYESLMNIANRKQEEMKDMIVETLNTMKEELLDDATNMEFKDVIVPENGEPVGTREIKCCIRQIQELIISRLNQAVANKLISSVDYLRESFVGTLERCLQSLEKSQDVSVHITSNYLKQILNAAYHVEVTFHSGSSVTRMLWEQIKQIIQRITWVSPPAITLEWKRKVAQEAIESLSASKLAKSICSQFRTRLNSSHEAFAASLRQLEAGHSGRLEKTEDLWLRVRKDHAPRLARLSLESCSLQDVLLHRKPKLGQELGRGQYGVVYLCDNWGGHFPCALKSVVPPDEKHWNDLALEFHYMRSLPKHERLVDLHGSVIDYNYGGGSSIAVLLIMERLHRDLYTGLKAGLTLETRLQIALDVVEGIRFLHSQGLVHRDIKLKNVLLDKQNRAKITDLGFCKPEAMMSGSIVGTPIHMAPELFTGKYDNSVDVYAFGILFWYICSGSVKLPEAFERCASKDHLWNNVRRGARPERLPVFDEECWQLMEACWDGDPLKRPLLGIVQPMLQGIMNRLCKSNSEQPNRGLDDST
Method in brief: as §1

[7] = target: T7, kinases of the scanMAX Kinase assay panel (Homo sapiens, UniProt Q86YV6); details: MYLK4; 1 uM
T7 construct: purchased DiscoverX Co. (contract measurement) scanMAX Kinase assay panel
T7 sequence (Q86YV6 1-388): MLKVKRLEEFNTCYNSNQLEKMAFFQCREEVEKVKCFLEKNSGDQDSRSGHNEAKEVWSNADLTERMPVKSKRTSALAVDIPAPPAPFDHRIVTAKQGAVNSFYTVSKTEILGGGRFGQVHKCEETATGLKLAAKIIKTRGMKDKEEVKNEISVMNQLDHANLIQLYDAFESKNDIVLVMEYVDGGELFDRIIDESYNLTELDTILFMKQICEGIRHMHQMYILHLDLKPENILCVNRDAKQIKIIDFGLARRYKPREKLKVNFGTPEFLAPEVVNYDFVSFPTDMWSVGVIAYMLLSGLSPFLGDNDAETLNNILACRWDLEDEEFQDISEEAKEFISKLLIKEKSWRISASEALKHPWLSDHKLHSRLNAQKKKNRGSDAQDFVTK
Method in brief: as §1

T1 sequence (P00519 whole entry E255K): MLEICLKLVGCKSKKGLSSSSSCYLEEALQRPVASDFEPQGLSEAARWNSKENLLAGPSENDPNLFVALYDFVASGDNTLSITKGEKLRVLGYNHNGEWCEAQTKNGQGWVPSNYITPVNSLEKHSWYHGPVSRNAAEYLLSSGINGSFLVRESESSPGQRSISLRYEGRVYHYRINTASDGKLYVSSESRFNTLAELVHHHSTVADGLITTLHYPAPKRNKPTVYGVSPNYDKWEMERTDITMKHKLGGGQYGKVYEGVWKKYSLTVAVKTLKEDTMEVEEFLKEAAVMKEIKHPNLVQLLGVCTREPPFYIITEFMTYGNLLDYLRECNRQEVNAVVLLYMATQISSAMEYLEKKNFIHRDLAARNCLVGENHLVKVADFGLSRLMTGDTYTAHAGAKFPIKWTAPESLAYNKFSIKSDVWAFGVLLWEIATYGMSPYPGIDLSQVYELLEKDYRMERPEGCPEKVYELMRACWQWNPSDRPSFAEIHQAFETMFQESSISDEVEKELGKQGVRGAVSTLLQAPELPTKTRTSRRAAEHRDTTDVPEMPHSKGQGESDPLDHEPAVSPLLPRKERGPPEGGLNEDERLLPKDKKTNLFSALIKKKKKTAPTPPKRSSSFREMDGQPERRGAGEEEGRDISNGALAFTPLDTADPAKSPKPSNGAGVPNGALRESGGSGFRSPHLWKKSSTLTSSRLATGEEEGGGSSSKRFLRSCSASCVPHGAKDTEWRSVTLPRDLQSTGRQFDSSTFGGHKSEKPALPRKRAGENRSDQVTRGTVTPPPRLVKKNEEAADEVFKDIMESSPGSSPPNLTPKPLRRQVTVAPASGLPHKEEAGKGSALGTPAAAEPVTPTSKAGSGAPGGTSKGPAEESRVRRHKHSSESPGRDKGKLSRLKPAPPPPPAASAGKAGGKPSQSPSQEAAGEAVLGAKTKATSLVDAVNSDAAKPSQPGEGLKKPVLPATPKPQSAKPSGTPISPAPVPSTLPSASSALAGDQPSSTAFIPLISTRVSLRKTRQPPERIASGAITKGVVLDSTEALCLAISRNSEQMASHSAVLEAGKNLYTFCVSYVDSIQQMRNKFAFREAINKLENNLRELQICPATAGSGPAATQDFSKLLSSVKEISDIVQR

| Structure (SMILES) | remaining binding at 1 µM [1] | remaining binding at 1 µM [2] | remaining binding at 1 µM [3] | remaining binding at 1 µM [4] | remaining binding at 1 µM [5] | remaining binding at 1 µM [6] | remaining binding at 1 µM [7] |
| --- | --- | --- | --- | --- | --- | --- | --- |
| CNc1nc(Nc2ccc(C(=O)N3CCOCC3)cc2OC)nc2[nH]cc(C#N)c12 [Example 1, 2-((2-methoxy-4-(morpholine-4-carbonyl)phenyl)amino)-4-(methylamino)-7H-pyrrolo[2,3-d]pyrimidine-5-carbonitrile] | 91% | 6.8% | 98% | 99% | 87% | 10% | 90% |
| CC1(Nc2nc(Nc3cnn([C@H]4CCN(C5COC5)C[C@@H]4F)c3Cl)nc3[nH]cc(C#N)c23)CC1 [Example 52, 2-((5-chloro-1-((3S,4S)-3-fluoro-1-(oxetane-3-yl)piperidine-4-yl)-1H-pyrazole-4-yl)amino)((1-methylcyclopropyl)amino)-7H-pyrrolo[2,3-d]pyrimidine-5-carbonitrile] | 0.6% | 3.4% | 47% | 34% | 4.3% | 3.7% | 82% |
| CCNc1nc(Nc2ccc(C(=O)N3CCC(N4CCOCC4)CC3)cc2OC)nc2[nH]cc(C(F)(F)F)c12 [Example 104, (4-((4-(ethylamino)-5-(trifluoromethyl)-7H-pyrrolo[2,3-d]pyrimidine-2-yl)amino)-3-methoxyphenyl)(4-morpholinopiperidine-1-yl)methanone] | 100% | 3.7% | 100% | 100% | 100% | 18% | 89% |

Source: patent publication US11208412B2 (DAEGU-GYEONGBUK MEDICAL INNOVATION FOUNDATION, priority 2017, dated 2021)
